Results as given in PMC3211141 (Anesthesiology, 2011).
Read-outs that look alike come from different tables or passages of the source.

What was measured:
[1] = system: homomeric and heteromeric TASK channels; experiment: Whole-cell recording, statements across all tested TASK channel constructs; assay type: cell-based
[2] = system: wild-type mice; experiment: Electroencephalogram recording of bupivacaine-induced seizures, wild type mice; assay type: in vivo; settings: control (wild type) mice, two lower bupivacaine doses, n=6
[3] = system: TASK−/− mice; assay type: in vivo; settings: two lower bupivacaine doses, n=6
[4] = system: wild-type C57BL/6 mice; settings: for seizure incidence (N=seizure/total) / seizure incidence (% of mice) / seizure duration (typical) / EC50 for induction of seizures: iv; for EC50 for induction of seizures: wild type mice, quantal dose-response
[5] = system: TASK-1−/−:TASK-3−/− double knockout mice; settings: for EC50 for induction of seizures / seizure duration (typical): iv
[6] = biological target: TASK-1/TASK-3 heterodimeric channels (Rattus norvegicus, UniProt O54912+Q9ES08); assay type: cell-based; settings: exemplar cell
Chain of TASK-1/TASK-3 heterodimeric channels (O54912 whole entry): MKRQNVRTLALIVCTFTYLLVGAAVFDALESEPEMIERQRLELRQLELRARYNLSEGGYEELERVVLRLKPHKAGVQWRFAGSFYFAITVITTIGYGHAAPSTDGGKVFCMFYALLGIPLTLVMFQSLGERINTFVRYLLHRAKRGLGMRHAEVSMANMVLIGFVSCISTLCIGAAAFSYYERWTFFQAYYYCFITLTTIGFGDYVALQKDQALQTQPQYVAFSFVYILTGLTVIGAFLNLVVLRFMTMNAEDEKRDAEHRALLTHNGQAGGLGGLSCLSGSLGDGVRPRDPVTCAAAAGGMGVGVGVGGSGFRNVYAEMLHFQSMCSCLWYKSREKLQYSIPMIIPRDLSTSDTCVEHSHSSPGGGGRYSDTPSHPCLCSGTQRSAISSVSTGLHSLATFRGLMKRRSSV
Chain of TASK-1/TASK-3 heterodimeric channels (Q9ES08 whole entry): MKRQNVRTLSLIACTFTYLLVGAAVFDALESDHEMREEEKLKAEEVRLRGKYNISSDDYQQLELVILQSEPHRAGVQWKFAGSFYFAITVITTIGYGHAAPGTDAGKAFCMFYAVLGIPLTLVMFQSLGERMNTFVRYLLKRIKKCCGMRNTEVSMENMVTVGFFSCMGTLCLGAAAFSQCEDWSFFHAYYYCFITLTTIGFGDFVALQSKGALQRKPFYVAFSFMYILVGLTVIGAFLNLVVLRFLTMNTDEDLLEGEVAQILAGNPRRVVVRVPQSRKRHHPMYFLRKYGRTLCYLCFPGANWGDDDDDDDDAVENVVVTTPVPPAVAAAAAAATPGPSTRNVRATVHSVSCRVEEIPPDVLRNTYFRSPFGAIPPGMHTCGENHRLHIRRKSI

[7] = C57BL/6, mouse, in vivo, 2.5 mg/kg
[8] = C57BL/6, mouse, in vivo, 3.75 mg/kg
[9] = C57BL/6, mouse, in vivo, 5 mg/kg
[10] = C57BL/6, mouse, in vivo, 6.25 mg/kg
[11] = C57BL/6, mouse, in vivo, 7.5 mg/kg
[12] = C57BL/6 background (TASK-1−/−:TASK-3−/− double knockout), mouse, in vivo
[13] = TASK−/− mice, quantal dose-response
[14] = C57BL/6, mouse, in vivo, 10 mg/kg

Row | Compound | seizure incidence (N=seizure/total) [4, 7] | seizure incidence (N=seizure/total) [4, 9] | seizure incidence (N=seizure/total) [4, 10] | seizure incidence (N=seizure/total) [4, 11] | EC50 for induction of seizures [4] | EC50 for induction of seizures [5, 13] | seizure duration (typical) ([4]; C57BL/6, mouse, in vivo) [s] | seizure incidence (N=seizure/total) [4, 14] | seizure duration (typical) [5, 12] [s] | also measured
1 | CCCCN1CCCCC1C(=O)Nc1c(C)cccc1C (centres unmarked) [bupivacaine] | 1/14 | 14/14 | 12/12 | 4/4 | 3.4 ± 0.1 mg/kg | 4.5 ± 0.1 mg/kg | – | – | – | fold more potent than lidocaine for TASK channel inhibition [1]: 3.1- to 4.4 fold; fold more potent than ropivacaine for TASK channel inhibition ([1]; across TASK channels): 1.4- to 1.7 fold; electroencephalogram peak frequency during seizures [2]: 3.4 ± 0.4 Hz; electroencephalogram peak frequency during seizures [3]: ~ 4.4 ± 0.2 Hz; fold more potent for induction of seizures than ropivacaine ([4]; C57BL/6, mouse, in vivo): ~ 1.4 fold; seizure incidence (% of mice) [4, 8]: ~ 71%; seizure duration (typical) ([4]; mouse, in vivo): significantly longer in duration; fold more potent for induction of seizures than ropivacaine [5, 12]: ~ 1.4 fold
2 | CCN(CC)CC(=O)Nc1c(C)cccc1C [lidocaine] | – | 0/15 | – | – | – | – | < 25 | 4/15 | < 25 | seizure incidence (N=seizure/total) ([4]; C57BL/6, mouse, in vivo, 15 mg/kg): 10/15; seizure incidence (N=seizure/total) ([4]; C57BL/6, mouse, in vivo, 17.5 mg/kg): 13/15; EC50 for induction of seizures ([5]; mouse, in vivo): 17.3 ± 1.0 mg/kg
3 | CCCN1CCCC[C@H]1C(=O)Nc1c(C)cccc1C [ropivacaine] | 0/14 | 10/14 | 14/14 | 11/11 | 4.7 ± 0.1 mg/kg | 6.0 ± 0.2 mg/kg | < 150 | 3/3 | < 150 | seizure incidence (N=seizure/total) [4, 8]: 0/14; seizure incidence (% of mice) [4, 9]: ~ 72%; seizure incidence (N=seizure/total) ([4]; C57BL/6, mouse, in vivo, 8.75 mg/kg): 9/9
4 | picrotoxin | – | – | – | – | ~ 1.0 mg/kg | ~ 1.0 mg/kg | – | – | – | effect on peak TASK-1/TASK-3 current ([6]; 100 μM): no discernible effect; decrease in peak TASK-1/TASK-3 current ([6]; 300 μM): < 10%; decrease in current amplitude (averaged, non-significant) ([1]; all tested TASK channel constructs, 50, 100 & 300 μM): ≤ 13%
